Source: ChEMBL document CHEMBL1156053, “Design, synthesis, protein-ligand X-ray structure, and biological evaluation of a series of novel macrocyclic human immunodeficiency virus-1 protease inhibitors to combat drug resistance” (J Med Chem, 2009)

Columns and labels:
[1] = molecular target: Protease (Human immunodeficiency virus 1, UniProt Q9YQ12); assay: Inhibition of HIV1 protease
[2] = test system: Human immunodeficiency virus 1; assay: Antiviral activity against multidrug-resistant HIV1 isolate MM infected in PHA-stimulated human PBMC assessed as inhibition of p24 […] protein production; assay type: functional, organism-based; conditions: Human immunodeficiency virus 1, isolate MM
[3] = test system: Human immunodeficiency virus 1; assay: Antiviral activity against multidrug-resistant HIV1 isolate G infected in PHA-stimulated human PBMC assessed as inhibition of p24 […] protein production; assay type: functional, organism-based; conditions: Human immunodeficiency virus 1, isolate G
[4] = test system: Human immunodeficiency virus 1; assay: Selectivity ratio of IC50 for multidrug-resistant HIV1 isolate JSL to IC50 for wild type HIV1 isolate ERS104pre; assay type: functional
[5] = test system: Human immunodeficiency virus 1; assay: Selectivity ratio of IC50 for multidrug-resistant HIV1 isolate B to IC50 for wild type HIV1 isolate ERS104pre; assay type: functional
[6] = test system: Human immunodeficiency virus 1; assay: Antiviral activity against multidrug-resistant HIV1 isolate C infected in PHA-stimulated human PBMC assessed as inhibition of p24 […] protein production; assay type: functional, organism-based; conditions: Human immunodeficiency virus 1, isolate C
[7] = test system: Human immunodeficiency virus 1; assay: Antiviral activity against wild type HIV1 isolate ERS104pre infected in PHA-stimulated human PBMC assessed as inhibition of p24 […] protein production; assay type: functional, organism-based; conditions: Human immunodeficiency virus 1, isolate ERS104pre
[8] = test system: Human immunodeficiency virus 1; assay: Selectivity ratio of IC50 for multidrug-resistant HIV1 isolate C to IC50 for wild type HIV1 isolate ERS104pre; assay type: functional
[9] = test system: Human immunodeficiency virus 1; assay: Antiviral activity against multidrug-resistant HIV1 isolate JSL infected in PHA-stimulated human PBMC assessed as inhibition of p24 […] protein production; assay type: functional, organism-based; conditions: Human immunodeficiency virus 1, isolate JSL
[10] = test system: Human immunodeficiency virus 1; assay: Selectivity ratio of IC50 for multidrug-resistant HIV1 isolate G to IC50 for wild type HIV1 isolate ERS104pre; assay type: functional
[11] = test system: Human immunodeficiency virus 1; assay: Selectivity ratio of IC50 for multidrug-resistant HIV1 isolate MM to IC50 for wild type HIV1 isolate ERS104pre; assay type: functional
[12] = test system: Human immunodeficiency virus 1; assay: Antiviral activity against multidrug-resistant HIV1 isolate TM infected in PHA-stimulated human PBMC assessed as inhibition of p24 […] protein production; assay type: functional, organism-based; conditions: Human immunodeficiency virus 1, isolate TM
[13] = test system: Human immunodeficiency virus 1; assay: Antiviral activity against multidrug-resistant HIV1 isolate B infected in PHA-stimulated human PBMC assessed as inhibition of p24 […] protein production; assay type: functional, organism-based; conditions: Human immunodeficiency virus 1, isolate B
[14] = test system: Human immunodeficiency virus 1; assay: Selectivity ratio of IC50 for multidrug-resistant HIV1 isolate TM to IC50 for wild type HIV1 isolate ERS104pre; assay type: functional
[15] = test system: Human immunodeficiency virus 1; assay: Antiviral activity against HIV1 LAI infected in human MT2 cells by MTT assay; assay type: functional, organism-based; conditions: Human immunodeficiency virus 1, M:B_Lai
[16] = test system: Human immunodeficiency virus 1; assay: Antiviral activity against lopinavir-resistant HIV1 NL4-3; assay type: functional, organism-based; conditions: Human immunodeficiency virus 1, NL4-3
[17] = test system: Human immunodeficiency virus 1; assay: Antiviral activity against indinavir-resistant HIV1 NL4-3; assay type: functional, organism-based; conditions: Human immunodeficiency virus 1, NL4-3
[18] = test system: Human immunodeficiency virus 1; assay: Antiviral activity against saquinavir-resistant HIV1 NL4-3; assay type: functional, organism-based; conditions: Human immunodeficiency virus 1, NL4-3

Sequence of Protease (Q9YQ12 whole entry): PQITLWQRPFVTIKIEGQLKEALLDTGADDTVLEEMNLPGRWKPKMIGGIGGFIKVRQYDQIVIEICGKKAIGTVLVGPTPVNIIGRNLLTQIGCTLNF

Compound | Ki [1] | IC50 [15] | further results
COc1ccc2c(c1)OC/C=C\CN(C[C@@H](O)[C@H](Cc1ccccc1)NC(=O)O[C@H]1CO[C@H]3OCC[C@H]31)S2(=O)=O | 2.4 nM | – | –
CC(C)(C)NC(=O)[C@@H]1CN(Cc2cccnc2)CCN1C[C@@H](O)C[C@@H](Cc1ccccc1)C(=O)N[C@H]1c2ccccc2C[C@H]1O.O | – | – | IC50 [2]: > 1000 nM; IC50 [3]: 340 nM; Ratio IC50 [4]: >23; Ratio IC50 [5]: >23; IC50 [6]: > 1000 nM; IC50 [7]: 43 nM; Ratio IC50 [8]: >23; IC50 [9]: > 1000 nM; Ratio IC50 [10]: 5; Ratio IC50 [11]: >23; IC50 [12]: > 1000 nM; IC50 [13]: > 1000 nM; Ratio IC50 [14]: >23
COc1ccc2c(c1)OCCCCCCCC(C)(C)CN(C[C@@H](O)[C@H](Cc1ccccc1)NC(=O)O[C@H]1CO[C@H]3OCC[C@H]31)S2(=O)=O | 6.8 nM | > 1000 nM | –
COc1ccc2c(c1)OCCC/C=C/CCC(C)(C)CN(C[C@@H](O)[C@H](Cc1ccccc1)NC(=O)O[C@H]1CO[C@H]3OCC[C@H]31)S2(=O)=O | 6.9 nM | > 1000 nM | –
COc1ccc2c(c1)OCCCCCCCCCCN(C[C@@H](O)[C@H](Cc1ccccc1)NC(=O)O[C@H]1CO[C@H]3OCC[C@H]31)S2(=O)=O | 0.82 nM | 318 nM | –
C=CCCCCOc1cc(OC)ccc1S(=O)(=O)N(C[C@@H](C)CC=C)C[C@@H](O)[C@H](Cc1ccccc1)NC(=O)O[C@H]1CO[C@H]2OCC[C@H]21 | 58 nM | > 1000 nM | –
COc1ccc2c(c1)OCCC/C=C/CC[C@@H](C)CN(C[C@@H](O)[C@H](Cc1ccccc1)NC(=O)O[C@H]1CO[C@H]3OCC[C@H]31)S2(=O)=O | 2.8 nM | 6.3 nM | –
C=CCCOc1cc(OC)ccc1S(=O)(=O)N(CC=C)C[C@@H](O)[C@H](Cc1ccccc1)NC(=O)O[C@H]1CO[C@H]2OCC[C@H]21 | 0.63 nM | – | –
COc1ccc2c(c1)OCCC/C=C\CN(C[C@@H](O)[C@H](Cc1ccccc1)NC(=O)O[C@H]1CO[C@H]3OCC[C@H]31)S2(=O)=O | 0.077 nM | 20 nM | –
C=CCCCCOc1cc(OC)ccc1S(=O)(=O)N(CCCCC=C)C[C@@H](O)[C@H](Cc1ccccc1)NC(=O)O[C@H]1CO[C@H]2OCC[C@H]21 | 16.5 nM | > 1000 nM | –
Cc1cccc(C)c1OCC(=O)N[C@@H](Cc1ccccc1)[C@@H](O)C[C@H](Cc1ccccc1)NC(=O)[C@H](C(C)C)N1CCCNC1=O [LOPINAVIR] | – | – | IC50 [2]: > 1000 nM; IC50 [3]: 260 nM; Ratio IC50 [4]: >29; Ratio IC50 [5]: >29; IC50 [6]: > 1000 nM; IC50 [7]: 34 nM; Ratio IC50 [8]: >29; IC50 [9]: > 1000 nM; Ratio IC50 [10]: 8; Ratio IC50 [11]: >29; IC50 [12]: > 1000 nM; IC50 [13]: > 1000 nM; Ratio IC50 [14]: >29
COc1ccc2c(c1)OCCC/C=C\CC[C@@H](C)CN(C[C@@H](O)[C@H](Cc1ccccc1)NC(=O)O[C@H]1CO[C@H]3OCC[C@H]31)S2(=O)=O | 6 nM | 200 nM | –
COc1ccc(S(=O)(=O)N(CC(C)C)C[C@@H](O)[C@H](Cc2ccccc2)NC(=O)O[C@H]2CO[C@H]3OCC[C@H]32)cc1 | – | 1.2 nM | –
C=CCCCCN(C[C@@H](O)[C@H](Cc1ccccc1)NC(=O)O[C@H]1CO[C@H]2OCC[C@H]21)S(=O)(=O)c1ccc(OC)cc1OCC=C | 10 nM | – | –
COc1ccc2c(c1)OCCCC/C=C\CN(C[C@@H](O)[C@H](Cc1ccccc1)NC(=O)O[C@H]1CO[C@H]3OCC[C@H]31)S2(=O)=O | 0.08 nM | 23 nM | –
COc1ccc2c(c1)OCCCCCCC[C@H](C)CN(C[C@@H](O)[C@H](Cc1ccccc1)NC(=O)O[C@H]1CO[C@H]3OCC[C@H]31)S2(=O)=O | 0.07 nM | 170 nM | –
C=CCCCCOc1cc(OC)ccc1S(=O)(=O)N(C[C@@H](O)[C@H](Cc1ccccc1)NC(=O)O[C@H]1CO[C@H]2OCC[C@H]21)CC(C)(C)CC=C | 82 nM | > 1000 nM | –
COc1ccc2c(c1)OCCCCCCCN(C[C@@H](O)[C@H](Cc1ccccc1)NC(=O)O[C@H]1CO[C@H]3OCC[C@H]31)S2(=O)=O | 0.017 nM | 14 nM | –

Compound | Ki [1] | IC50 [15] | further results
COc1ccc2c(c1)OCCC=CCCCCN(C[C@@H](O)[C@H](Cc1ccccc1)NC(=O)O[C@H]1CO[C@H]3OCC[C@H]31)S2(=O)=O | – | – | IC50 [16]: 20 nM; IC50 [17]: 20 nM; IC50 [18]: 20 nM
C=CCCCCOc1cc(OC)ccc1S(=O)(=O)N(CC=C)C[C@@H](O)[C@H](Cc1ccccc1)NC(=O)O[C@H]1CO[C@H]2OCC[C@H]21 | 1.7 nM | 270 nM | –
COc1ccc2c(c1)OCCCCCCC[C@@H](C)CN(C[C@@H](O)[C@H](Cc1ccccc1)NC(=O)O[C@H]1CO[C@H]3OCC[C@H]31)S2(=O)=O | 3.7 nM | 650 nM | –
C=CCCCOc1cc(OC)ccc1S(=O)(=O)N(CC=C)C[C@@H](O)[C@H](Cc1ccccc1)NC(=O)O[C@H]1CO[C@H]2OCC[C@H]21 | 1.02 nM | 290 nM | –
CC(C)CN(C[C@@H](O)[C@H](Cc1ccccc1)NC(=O)O[C@H]1CCOC1)S(=O)(=O)c1ccc(N)cc1 | – | – | IC50 [2]: 210 nM; IC50 [3]: 430 nM; IC50 [6]: 370 nM; IC50 [7]: 30 nM; IC50 [9]: 620 nM; IC50 [12]: 320 nM; IC50 [13]: > 1000 nM
C=CCOc1cc(OC)ccc1S(=O)(=O)N(CC=C)C[C@@H](O)[C@H](Cc1ccccc1)NC(=O)O[C@H]1CO[C@H]2OCC[C@H]21 | 0.1 nM | – | –
COc1ccc2c(c1)OCCCCCN(C[C@@H](O)[C@H](Cc1ccccc1)NC(=O)O[C@H]1CO[C@H]3OCC[C@H]31)S2(=O)=O | 0.09 nM | 5.5 nM | –
COc1ccc2c(c1)OCCCCCCCCN(C[C@@H](O)[C@H](Cc1ccccc1)NC(=O)O[C@H]1CO[C@H]3OCC[C@H]31)S2(=O)=O | 0.47 nM | 22 nM | –
COc1ccc2c(c1)OC/C=C\CCCCN(C[C@@H](O)[C@H](Cc1ccccc1)NC(=O)O[C@H]1CO[C@H]3OCC[C@H]31)S2(=O)=O | 0.058 nM | 14 nM | –
C=CCCCCN(C[C@@H](O)[C@H](Cc1ccccc1)NC(=O)O[C@H]1CO[C@H]2OCC[C@H]21)S(=O)(=O)c1ccc(OC)cc1OCCC=C | 6.9 nM | – | –
CC(C)(C)NC(=O)[C@@H]1C[C@@H]2CCCC[C@@H]2CN1C[C@@H](O)[C@H](Cc1ccccc1)NC(=O)[C@H](CC(N)=O)NC(=O)c1ccc2ccccc2n1 | – | – | IC50 [2]: 190 nM; IC50 [3]: 30 nM; IC50 [6]: 32 nM; IC50 [7]: 8 nM; IC50 [9]: 300 nM; IC50 [12]: 260 nM; IC50 [13]: 270 nM
C=CCCCCOc1cc(OC)ccc1S(=O)(=O)N(CC(C)CC=C)C[C@@H](O)[C@H](Cc1ccccc1)NC(=O)O[C@H]1CO[C@H]2OCC[C@H]21 (some centres undefined) | 15 nM | 380 nM | –
COc1ccc2c(c1)OCC/C=C\CN(C[C@@H](O)[C@H](Cc1ccccc1)NC(=O)O[C@H]1CO[C@H]3OCC[C@H]31)S2(=O)=O | 0.051 nM | 15 nM | –
COc1ccc2c(c1)OCCCCCCCCCN(C[C@@H](O)[C@H](Cc1ccccc1)NC(=O)O[C@H]1CO[C@H]3OCC[C@H]31)S2(=O)=O | 0.67 nM | 49 nM | –
C=CCCCCN(C[C@@H](O)[C@H](Cc1ccccc1)NC(=O)O[C@H]1CO[C@H]2OCC[C@H]21)S(=O)(=O)c1ccc(OC)cc1OCCCC=C | 11.5 nM | > 1000 nM | –
COc1ccc2c(c1)OCCCCCCN(C[C@@H](O)[C@H](Cc1ccccc1)NC(=O)O[C@H]1CO[C@H]3OCC[C@H]31)S2(=O)=O | 0.15 nM | 95 nM | –
COc1ccc2c(c1)OCCC/C=C/CC[C@H](C)CN(C[C@@H](O)[C@H](Cc1ccccc1)NC(=O)O[C@H]1CO[C@H]3OCC[C@H]31)S2(=O)=O | 0.15 nM | 52 nM | –
COc1ccc2c(c1)OCCC/C=C\CC[C@H](C)CN(C[C@@H](O)[C@H](Cc1ccccc1)NC(=O)O[C@H]1CO[C@H]3OCC[C@H]31)S2(=O)=O | 0.31 nM | 9 nM | –
